Data on 28 molecules can be found in patent publication US11541050B2, “Pyrimidine derivatives for the treatment of viral infections” (JANSSEN SCIENCES IRELAND UC, priority 2011, dated 2023).

A value given as a limit tells only on which side of the number the result lay.

What all share (format): cell-based
Parameters in all cases: unit not given here

Assay [1] concerns the target T1, human TLR7 (wild type sequence) (Homo sapiens, UniProt Q9NYK1).
T1 construct: expressed in transfected cells; host or cells: HEK293
T1 sequence (Q9NYK1 27-1049): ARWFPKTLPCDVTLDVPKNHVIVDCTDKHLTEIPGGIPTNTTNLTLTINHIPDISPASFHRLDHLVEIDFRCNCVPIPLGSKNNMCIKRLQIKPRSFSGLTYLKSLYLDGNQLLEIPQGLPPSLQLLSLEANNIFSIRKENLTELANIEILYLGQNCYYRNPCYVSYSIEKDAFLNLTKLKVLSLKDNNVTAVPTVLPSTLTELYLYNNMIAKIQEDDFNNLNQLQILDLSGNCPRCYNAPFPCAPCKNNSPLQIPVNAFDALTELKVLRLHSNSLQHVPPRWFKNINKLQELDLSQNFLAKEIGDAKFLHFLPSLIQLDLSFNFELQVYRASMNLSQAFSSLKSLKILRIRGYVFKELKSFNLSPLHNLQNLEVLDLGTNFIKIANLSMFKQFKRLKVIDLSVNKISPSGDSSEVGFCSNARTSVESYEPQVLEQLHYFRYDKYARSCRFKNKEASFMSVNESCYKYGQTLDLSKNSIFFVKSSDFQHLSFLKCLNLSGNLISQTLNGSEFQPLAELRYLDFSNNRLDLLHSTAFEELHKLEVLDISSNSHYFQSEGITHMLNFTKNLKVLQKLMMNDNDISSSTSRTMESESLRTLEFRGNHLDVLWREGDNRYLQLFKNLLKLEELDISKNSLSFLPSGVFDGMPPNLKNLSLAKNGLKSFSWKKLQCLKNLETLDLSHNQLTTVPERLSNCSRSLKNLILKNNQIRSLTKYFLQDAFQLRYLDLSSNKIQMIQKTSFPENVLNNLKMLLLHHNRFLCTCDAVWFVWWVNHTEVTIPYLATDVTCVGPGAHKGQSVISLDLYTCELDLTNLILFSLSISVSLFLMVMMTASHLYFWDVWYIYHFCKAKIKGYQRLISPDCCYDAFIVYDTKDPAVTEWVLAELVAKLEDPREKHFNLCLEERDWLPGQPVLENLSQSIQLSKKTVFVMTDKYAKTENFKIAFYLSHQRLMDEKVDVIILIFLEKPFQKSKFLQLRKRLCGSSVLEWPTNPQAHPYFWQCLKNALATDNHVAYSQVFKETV
Briefly: TLR7 cellular NFκB-luc reporter assay, wild type TLR7. The following applies: lowest effective concentration, wild type TLR7. An outline of the steps: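 HEK293 cells were transiently transfected for 48 h with a CMV-driven wild-type or LRR2-deletion TLR7 or TLR8 plasmid plus an NFκB-luc reporter. They were then exposed to compound for 6 h at 37 °C and luciferase was read. LEC is the concentration giving an effect at least twofold above the assay SD, from quadruplicate dose-response curves.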
On the technique in general: Reporter assays use an easily measured gene product as a stand-in for the process of interest.

Assay [2] has as its system human TLR7 mutant sequence comprising a deletion in the second leucine-rich repeat. Briefly: TLR7 cellular NFκB-luc reporter assay, mutant TLR7 with deletion in the second leucine-rich repeat. The note with it: lowest effective concentration. In short, it runs like this:
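HEK293 cells transiently co-transfected with CMV-driven mutant TLR7 or TLR8 plasmid plus NFκB-luc reporter, cultured 48 h at 37 °C, then exposed to compound for 6 h at 37 °C, 5% CO2. Luciferase luminescence measured; dose-response curves from quadruplicates.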

The test system of assay [3] is human TLR8 mutant sequence comprising a deletion in the second leucine-rich repeat. Briefly: TLR8 cellular NFκB-luc reporter assay, mutant TLR8 with deletion in the second leucine-rich repeat. The following applies: lowest effective concentration. The procedure:
The ability of compounds to activate human TLR7 and/or TLR8 was assessed in a cellular reporter assay using HEK293 cells transiently transfected with a TLR7 or TLR8 expression vector and NFκB-luc reporter construct. In one instance the TLR expression construct expresses the respective wild type sequence or a mutant sequence comprising a deletion in the second leucine-rich repeat of the TLR.
Briefly, HEK293 cells were grown in culture medium (DMEM supplemented with 10% FCS and 2 mM Glutamine). For transfection of cells in 10 cm dishes, cells were detached with Trypsin-EDTA, transfected with a mix of CMV-TLR7 or TLR8 plasmid (750 ng), NFκB-luc plasmid (375 ng) and a transfection reagent and incubated for 48 hours at 37° C. in a humidified 5% CO2 atmosphere. […] Thirty microliters of cells were then dispensed into each well in 384-well plates, where 10 μL of compound in 4% DMSO was already present. Following 6 hours incubation at 37° C., 5% CO2, the luciferase activity was determined by adding 15 μl of Steady Lite Plus substrate (Perkin Elmer) to each well and readout performed on a ViewLux ultraHTS microplate imager (Perkin Elmer). Dose response curves were generated from measurements performed in quadruplicates.

As for `CCCC[C@@H](CO)Nc1nc(N)ncc1OCc1nccc(OC)c1OC` [Compound 217], the TLR7-wt_LEC in assay [1] amounted to 0.106. The TLR7-dIRR2_LEC in assay [2] is reported as 0.433. In assay [3], the TLR8-dIRR2_LEC is given as 0.007.

`CCC[C@@H](CO)Nc1nc(N)ncc1OCc1cn2ccccc2n1` [Compound 215] displayed a TLR7-wt_LEC in assay [1] of 0.171. Further, the TLR7-dIRR2_LEC in assay [2] came out at 0.300. The molecule further showed a TLR8-dIRR2_LEC in assay [3] of 0.029.

Regarding `CCCC[C@@H](CCO)Nc1nc(N)ncc1OCc1cccnn1` [Compound 280], the TLR7-wt_LEC in assay [1] worked out at 0.392. The molecule further returned a TLR7-dIRR2_LEC in assay [2] of 1.450. Further, the TLR8-dIRR2_LEC in assay [3] is 0.038.

In assay [1], `CCCCNc1nc(N)ncc1OCCOCC(C)C` [Compound 289] came in with a TLR7-wt_LEC of 0.875. The molecule further gave a TLR7-dIRR2_LEC in assay [2] of 0.930. In assay [3], this molecule gave a TLR8-dIRR2_LEC of 0.647.

Take `CCC[C@@H](CCO)Nc1nc(N)ncc1OCc1cc(C)nn1C` [Compound 264]: the TLR7-wt_LEC in assay [1] was 0.215. In assay [2], this molecule returned a TLR7-dIRR2_LEC of 0.489. Further, the TLR8-dIRR2_LEC in assay [3] worked out at 0.087.

The molecule `CCC[C@@H](CO)Nc1nc(N)ncc1OCc1cccnn1` [Compound 277] gave a TLR7-wt_LEC in assay [1] of 1.180. In assay [2], this molecule showed a TLR7-dIRR2_LEC of 0.438. The TLR8-dIRR2_LEC in assay [3] was determined as 0.135.

The molecule `CCCCNc1nc(N)ncc1OCCN1CCOCC1` [Compound 269] gave a TLR7-wt_LEC in assay [1] of 24.550. In assay [2], this molecule came in with a TLR7-dIRR2_LEC of 8.280. In assay [3], this molecule had a TLR8-dIRR2_LEC of 9.750.

Molecule `CCCC[C@@H](CCO)Nc1nc(N)ncc1OCc1nccc(OC)c1OC` [Compound 245] showed a TLR7-wt_LEC in assay [1] of 0.040. The TLR7-dIRR2_LEC in assay [2] came to 0.507. The TLR8-dIRR2_LEC in assay [3] was determined as 0.011.

In the case of `CCCC[C@@H](CCO)Nc1nc(N)ncc1OCCCc1ccc(OC)cc1` [Compound 225], the TLR7-wt_LEC in assay [1] was found to be 0.385. Moreover, the TLR7-dIRR2_LEC in assay [2] worked out at 2.180. Besides, in assay [3], the TLR8-dIRR2_LEC worked out at 0.129.

As for `CCCCNc1nc(N)ncc1OCCOCC(F)(F)F` [Compound 276], the TLR7-wt_LEC in assay [1] is 3.260. Also, in assay [2], the TLR7-dIRR2_LEC is listed as 0.707. In addition, the TLR8-dIRR2_LEC in assay [3] was 0.652.

As to `CCC[C@@H](CCO)Nc1nc(N)nc(C)c1OCc1nccc2ccccc12` [Compound 286], the TLR7-wt_LEC in assay [1] turned out to be 0.620. This molecule yielded a TLR7-dIRR2_LEC in assay [2] of 7.660. Besides, the TLR8-dIRR2_LEC in assay [3] is 0.128.

Molecule `CCCC[C@@H](CO)Nc1nc(N)ncc1OCCCc1ccc2c(c1)OCO2` [Compound 228] gave a TLR7-wt_LEC in assay [1] of 1.410. Also, in assay [2], the TLR7-dIRR2_LEC amounted to 1.510. The molecule further returned a TLR8-dIRR2_LEC in assay [3] of 0.112.

In assay [1], `CCC[C@@H](CCO)Nc1nc(N)ncc1OCc1cn(-c2ccccc2)nn1` [Compound 285] displayed a TLR7-wt_LEC of 0.266. Further, the TLR7-dIRR2_LEC in assay [2] was 0.530. This molecule gave a TLR8-dIRR2_LEC in assay [3] of 0.036.

As for `CCCC[C@@H](CCO)Nc1nc(N)ncc1OCc1cncn1[C@@H](C)c1ccccc1` [Compound 247], in assay [1], the TLR7-wt_LEC was found to be 12.390. The molecule also returned a TLR7-dIRR2_LEC in assay [2] of 8.240. Moreover, in assay [3], the TLR8-dIRR2_LEC was determined as 3.200.

In assay [1], `CCC[C@@H](CCO)Nc1nc(N)ncc1OCCOC` [Compound 268] showed a TLR7-wt_LEC of 2.100. For the same molecule, in assay [2], the TLR7-dIRR2_LEC worked out at 1.800. For the same molecule, the TLR8-dIRR2_LEC in assay [3] is 1.170.

Regarding `CCCC[C@@H](CCO)Nc1nc(N)ncc1OCCCc1ccc2c(c1)OCO2` [Compound 244], in assay [1], the TLR7-wt_LEC is recorded as 0.202. In assay [2], this molecule gave a TLR7-dIRR2_LEC of 1.400. The molecule also gave a TLR8-dIRR2_LEC in assay [3] of 0.104.

`CCCC[C@@H](CCO)Nc1nc(N)ncc1OCCOC` [Compound 266] returned a TLR7-wt_LEC in assay [1] of 1.070. In assay [2], this molecule came in with a TLR7-dIRR2_LEC of 1.890. Moreover, in assay [3], the TLR8-dIRR2_LEC was 0.557.

As for `CCC[C@@H](CO)Nc1nc(N)ncc1OCc1cccc(C(=O)O)n1` [Compound 260], the TLR7-wt_LEC in assay [1] was determined as 4.850. The molecule further came in with a TLR7-dIRR2_LEC in assay [2] of 2.830. This molecule gave a TLR8-dIRR2_LEC in assay [3] of more than 8.14.

`CCCC[C@@H](CCO)Nc1nc(N)ncc1OCc1ncc(C)c(O)c1C` [Compound 242] had a TLR7-wt_LEC in assay [1] of 5.400. This molecule came in with a TLR7-dIRR2_LEC in assay [2] of 3.010. This molecule also registered a TLR8-dIRR2_LEC in assay [3] of 0.006.

Take `CCC[C@H](C)Nc1nc(N)ncc1OCc1cn2ccccc2n1` [Compound 251]: in assay [1], the TLR7-wt_LEC was determined as 0.164. Also, the TLR7-dIRR2_LEC in assay [2] worked out at 0.556. In addition, the TLR8-dIRR2_LEC in assay [3] is on record as 0.087.

Molecule `CCC[C@@H](CCO)Nc1nc(N)ncc1OCc1cccc(C(N)=O)n1` [Compound 270] came in with a TLR7-wt_LEC in assay [1] of 0.109. The molecule also gave a TLR7-dIRR2_LEC in assay [2] of 0.131. For the same molecule, the TLR8-dIRR2_LEC in assay [3] amounted to 0.006.

Turning to `C#CCOc1cnc(N)nc1NCCCC` [Compound 248], the TLR7-wt_LEC in assay [1] stood at 2.120. The same molecule yielded a TLR7-dIRR2_LEC in assay [2] of 0.654. The same molecule gave a TLR8-dIRR2_LEC in assay [3] of 0.529.

The molecule `CCC[C@@H](CCO)Nc1nc(N)ncc1OCc1ccccn1` [Compound 293] showed a TLR7-wt_LEC in assay [1] of 0.197. The same molecule registered a TLR7-dIRR2_LEC in assay [2] of 0.530. Also, the TLR8-dIRR2_LEC in assay [3] is given as 0.088.

Take `CCCC[C@@H](CO)Nc1nc(N)ncc1OCc1nccc2ccccc12` [Compound 216]: the TLR7-wt_LEC in assay [1] came to 0.008. For the same molecule, the TLR7-dIRR2_LEC in assay [2] worked out at 0.111. Besides, in assay [3], the TLR8-dIRR2_LEC was found to be 0.002.

For the molecule `CCCC[C@@H](CCO)Nc1nc(N)ncc1OCc1nn(C)c2ccccc12` [Compound 240], the TLR7-wt_LEC in assay [1] came out at 0.008. The molecule also registered a TLR7-dIRR2_LEC in assay [2] of 0.442. Also, the TLR8-dIRR2_LEC in assay [3] is 0.005.

With `CCCC[C@@H](CCO)Nc1nc(N)ncc1OCc1ccccn1` [Compound 294], the TLR7-wt_LEC in assay [1] was found to be 0.133. The same molecule showed a TLR7-dIRR2_LEC in assay [2] of 0.521. In assay [3], this molecule showed a TLR8-dIRR2_LEC of 0.042.

`CCCCNc1nc(N)ncc1OCc1ncccc1F` [Compound 213]: in assay [1], the TLR7-wt_LEC stood at 0.225. The TLR7-dIRR2_LEC in assay [2] was 0.207. For the same molecule, the TLR8-dIRR2_LEC in assay [3] is recorded as 0.032.

Consider `CCCC[C@@H](CCO)Nc1nc(N)ncc1OCCOC(C)C` [Compound 296], for which, in assay [1], the TLR7-wt_LEC was 0.664. Further, in assay [2], the TLR7-dIRR2_LEC is recorded as 2.540. Further, in assay [3], the TLR8-dIRR2_LEC is 0.310.
